Data as given in patent publication US12084411B2, “Hinokitiol analogues, methods of preparing and pharmaceutical compositions thereof” (The Board of Trustees of the University of Illinois, priority 2018, dated 2024).
Where a name gives a salt, the structure may show the parent alone. Marks after values point to notes of the source that are not given here.

What was measured:
[1] = Iron (II) binding affinity, ferrozine competition assay; conditions: pH 7.0
Method: (§1) Specifically, the association constant for iron (II) was determined by a ferrozine competition assay (KA of ferrozine=3.65×10^15) (60). FeCl2 (25 μM) was pre-mixed with ferrozine (75 μM) in a 25 mM MES/Tris buffer at pH=7.0 containing 62.5 mM sodium ascorbate. Then increasing concentrations of small molecule (from 40X stocks in DMSO) were added to the indicated final concentrations. The solutions were allowed to equilibrate for 24 hours before reading of the absorbance at 562 nm. […] The system was allowed to equilibrate overnight, and the absorbance corresponding to the Fe(chelator)3 complex was determined. The EC50 values for each chelator were calculated by a nonlinear curve fit (Hill1) on OriginPro by plotting the absorbance vs. concentration of titrant, and the KA for each complex was determined from the equation: KA, ligand=(KA, competitor*[EC50])/[ligand] where the ligand is the molecule originally bound to iron, and the competitor is the competing chelator.

[2] = in parenthesis, cited from earlier work; for pFe^III, literature value: References 104, 106
[3] = not run under identical conditions, cited from earlier work; for E^0 Aqueous, literature value: Table 2, in parenthesis; for E^0 literature: Table 6
[4] = Electrochemical studies (cyclic voltammetry) of iron:chelator complexes; type: physicochemical
Method: Potentiostatic electrochemical methods were performed on a CH Instruments electrochemical workstation (model 760 C, Austin, TX) on a three-electrode cell. Hg working electrodes were fabricated by the electrodeposition of Hg on a Pt wire utilizing the procedure previously described by Barton et al. (70). All experiments were reported versus a Ag/AgCl reference electrode and utilized a graphite auxiliary electrode. The electrolyte was sparged with UHP argon before measurements. A positive pressure of argon was maintained throughout the experiments.
Unless otherwise indicated, experiments used a 0.1 M Tris buffer in H2O or 1:1 MeOH:H2O at pH=7.2 using HNO3 and KOH as titrant. Unless otherwise indicated, experiments used a 100 mV/s scan rate, 100 μM Fe(NO3)3, and 500 μM small molecule. All redox potentials are recorded versus a normal hydrogen electrode (NHE).
The estimated redox potential of Fe(Hino)n was determined through extrapolation of the best-fit line of the determined redox potentials of Fe(Hino)n as a function of the concentration of MeOH in the 0.1 M Tris buffer at pH=7.2.

fet3Δftr1Δ yeast [5] = test: Growth rescue of fet3Δftr1Δ yeast with small molecules in liquid media; type: cell-based, Saccharomyces cerevisiae; conditions: liquid low iron SD media, 10 μM FeCl3
Method: (§2) Growth rescue in yeast was performed similar to previously reported (20) using 10 μM hinokitiol in low iron SD liquid media containing 10 μM FeCl3 in a 96-well plate unless otherwise noted. Wild type and fet3Δftr1Δ controls treated with vehicle (DMSO) were performed under identical conditions using the same low iron SD media containing 10 μM FeCl3 in the absence of hinokitiol. Yeast were grown overnight in YPD media and diluted at an OD600 of 0.1 in SD media, diluted 10-fold, and incubated at 30° C. with continuous shaking (200 rpm). The OD600 was obtained 24-48 hours after inoculation unless otherwise noted.
(§3) Small molecule dose-response (FIG. 1F) with hinokitiol and C2-deoxy hinokitiol (C2deOHino, see synthesis below) was determined by addition of the small molecule (40X stock solution in DMSO) to give the indicated final concentrations.

wild-type yeast (WT) = test: Toxicity to wild type yeast (structure-activity study, FIG. 25)
Method: as §2, §3

[6] = system: DMT1-deficient Caco-2 monolayers; test: 55Fe uptake and transport in DMT1-deficient Caco-2 monolayers; conditions: apical addition (hinokitiol 500 nM); pH 5.5 apical, pH 7.4 basolateral; four hours
Method: Media from differentiated Caco-2 monolayers (P25-50, 21-28 days post seeding) grown on PET inserts in 6-well plates was aspirated, and monolayers were rinsed with PBS. 2 mL of basolateral fluid (serum-free DMEM at pH=7.4 in 10 mM HEPES buffer) was added to the basolateralside, and 1 mL of apical fluid (serum-free DMEM at pH=5.5 in 10 mM MES buffer) containing 200 nM ^55FeCl3 or the indicated concentration of FeCl3 and either DMSO vehicle, hinokitiol, C2deOHino, deferiprone, PIH, SIH, or deferoxamine mesylate (Sigma D9533) (500 nM Hino/C2deOHino for DMT1-deficiency, 1 μM Hino/C2deOHino for FPN1-deficiency, or indicated concentration of small molecule from a 1000X stock in DMSO) was added to the apical side via addition on the wall of the membrane insert without disrupting the cell monolayer. The monolayers were then incubated for four hours at 37° C. unless otherwise noted. A 100 μL aliquot of the basolateral fluid was removed, diluted in scintillation cocktail, and radioactivity was determined on a liquid scintillation counter to quantify relative amounts of ^55Fe transport. To determine intracellular ^55Fe, the basolateral and apical media was removed, and the monolayer was rinsed with PBS (×2). The cells were then lysed with 500 μL of 200 mM NaOH with nutator mixing overnight, and radioactivity was determined on a liquid scintillation counter after diluting the cell lysate in scintillation cocktail. All values were normalized to shControl monolayers unless otherwise noted. Absolute iron levels were determined through calibration of ^55Fe radioactivity levels with known standards and average mg of protein per membrane was determined by protein lysis with RIPA buffer containing protease inhibitors and quantified through a BCA kit according to manufacturer instructions.
TEER determination in Caco-2 monolayers (FIG. 12D and FIG. 14L) To determine Caco-2 membrane integrity, transport studies were performed as described above, except for the use of non-radioactive iron instead of ^55FeCl3. At the indicated time points, the transepithelial electrical resistance (TEER) was determined with an epithelial voltohmmeter and compared to the TEER of the membrane at the beginning of the experiment.

[7] = WST-8 toxicity in Caco-2 cells; conditions: human, wild type Caco-2 cells
Method: Determination of small molecule-mediated toxicity in Caco-2, MEL, and/or J774 cells was performed according to manufacturer instructions using a WST-8 kit (Cayman Chemical 10010199) similar to previously reported (76) using a 1000× stock of the indicated small molecule in DMSO to give the indicated final concentration.

fet3Δftr1Δ yeast [8] = test: Growth rescue of iron-deficient yeast with small molecules on agar plates; type: cell-based, Saccharomyces cerevisiae; conditions: low iron SD-agar plates, 10 μM FeCl3
[9] = Iron efflux from liposomes using ferrozine; type: biochemical; conditions: 5 μM small molecule
Method: Iron (III) efflux from POPC liposomes was determined similar to previously reported (64). POPC liposomes were prepared as similarly reported (65) using 30 mM FeCl3, 62.5 mM citrate at pH=7.0 in 25 mM Mes/Tris buffer. External iron was removed by size exclusion chromatography using Sephadex G-50 and eluting with external buffer. External buffer consisted of 62.5 mM ascorbate at pH=7.0 in 25 mM Mes/Tris buffer. The liposomes were diluted to 1 mM phosphorus in this buffer. Ferrozine (Sigma 160601) was added (100X stock in external buffer) to a final concentration of 500 μM. Liposomal suspension was then transferred to a 96-well plate, and either DMSO or 5 μM hinokitiol, C2deOHino, deferiprone, or PIH (40X stock solution in DMSO) were added to initiate the experiment. The OD562 was determined every minute over the course of 2 hours using a plate-reader with continuous shaking at 30° C. to detect the relative amounts of external ferrozine-iron chelate at the indicated times. After 2 hours, liposomes were lysed with Triton-X to give 100% iron efflux.
Iron (II) efflux was performed as described above, however, the internal buffer alternatively consisted of 30 mM FeSO4, 62.5 mM ascorbate at pH=7.0 in 25 mM Mes/Tris buffer and Triton-X lysis was performed after 1 hour.
The rates of iron efflux with increasing concentrations of intraliposomal iron and/or hinokitiol were determined as described above using the indicated concentration of iron and hinokitiol. For the varying concentrations of iron, hinokitiol (10 μM) was added to the POPC liposomes, and the change in absorbance at 562 nm was determined over 2 hours. For the varying concentrations of hinokitiol, 30 mM intraliposomal iron was used as described above. The concentration of iron outside of liposomes was determined using the extinction coefficient for ferrozine-iron (27,900 M^−1 cm^−1) (66). This was used to determine the amount of iron released from liposomes at the indicated times using the total volume for each experiment. Rates of iron efflux were determined after one hour of hinokitiol treatment.

[10] = Iron (III) binding affinity, EDTA or citrate competition assay; conditions: for KA for iron (III): EDTA competition (citrate for maltol), pH 7.0; for pFe^III: estimated from known pFe of EDTA (citrate for maltol)
Method: as §1

[11] = system: hinokitiol-rescued fet3Δftr1Δ yeast; test: Chemical inhibition of yeast cell growth with inhibitors of Pma1, V-ATPase; type: cell-based, Saccharomyces cerevisiae; conditions: 10 μM hinokitiol, 10 μM FeCl3
Method: Increasing dosages of caspofungin (Sigma SML0425), ebselen (Sigma 70530), or bafilomycin B1 (Santa Cruz sc-202072) (40X stocks in DMSO) were added to a yeast suspension (10-fold dilution from OD600=0.1) to give the indicated final dose. EC50 values were calculated from fitting of yeast growth curves using GraphPad PRISM.

## O=C(O)CN(CCN(CC(=O)O)CC(=O)O)CC(=O)O [EDTA]
[1]
  KA for iron (II): 1.2 × 10^15
[2]; Reference 60
  KA for iron (III), literature value: (1.7 × 10^24)*
[2]
  pFe^III, literature value: (22)^∥
[3]
  E^0 Aqueous, literature value: (137)**** mV vs. N.H.E.
[4]; Table 2
  E^0 Aqueous: 131 mV vs. N.H.E.
[4]; Table 2, 0.1 M Tris, pH 7.2
  E^0 1:1 MeOH:H2O: 139 mV vs. N.H.E.

## CC(C)CCc1cccc(O)c(=O)c1 [4-isopentyl tropolone]
fet3Δftr1Δ yeast [5]
  restoration of fet3Δftr1Δ yeast growth, small molecule dose-response: no rescue
wild-type yeast (WT)
  toxicity to wild type yeast: most toxic

## O=C([O-])CN(CCN(CC(=O)[O-])CC(=O)[O-])CC(=O)[O-].[Fe+3] [Fe^III(EDTA)]
[3]
  E^0 literature: 137^§ mV vs. N.H.E.
[4]; Table 6
  E^0 Aqueous: 181 mV vs. N.H.E.
[4]; Table 6, pH 7.2, 500 μM small molecule, 100 μM Fe(NO3)3
  E^0 1:1 MeOH:H2O: 139 mV vs. N.H.E.

## O=c1cccccc1O [Tropolone, tropolone]
fet3Δftr1Δ yeast [5]
  restoration of fet3Δftr1Δ yeast growth, small molecule dose-response: shows rescue of Fet3Ftr1 yeast, but only at higher concentrations
wild-type yeast (WT)
  toxicity to wild type yeast: does not show toxicity

## NC(=O)c1ccc[n+]([C@@H]2O[C@H](COP(=O)([O-])OP(=O)(O)OC[C@H]3O[C@@H](n4cnc5c(N)ncnc54)[C@H](OP(=O)(O)O)[C@@H]3O)[C@@H](O)[C@H]2O)c1 [NADP^+]
[3]
  E^0 literature: 108 mV vs. N.H.E.

## CC(=O)N(O)CCCCCNC(=O)CCC(=O)N(O)CCCCCNC(=O)CCC(=O)N(O)CCCCCN [deferoxamine, deferoxamine mesylate]
[6]
  iron uptake and transepithelial transport: did not promote both uptake and transport

## Cc1ncc(CO)c(C=NNC(=O)c2ccncc2)c1O [PIH, pyridoxal isonicotinoyl hydrazone]
[7]
  EC90: 31 µM
[6]
  iron uptake and transepithelial transport: did not promote both uptake and transport
fet3Δftr1Δ yeast [8]
  growth rescue of fet3Δftr1Δ yeast: no growth rescue
[9]
  transport of ferrous and ferric iron across model liposomal membranes: minimal transport

## Cc1c(O)c(=O)ccn1C [Deferiprone, deferiprone]
[1]
  KA for iron (II): 2.1 × 10^15
[2]
  pFe^III, literature value: (21)^§
[3]
  E^0 Aqueous, literature value: (−423)^# mV vs. N.H.E.
[7]
  EC90: > 100 µM
[10]
  KA for iron (III): 1.2 × 10^24
  pFe^III: 22^+
[6]
  iron uptake and transepithelial transport: did not promote both uptake and transport
fet3Δftr1Δ yeast [8]
  growth rescue of fet3Δftr1Δ yeast: no growth rescue
[4]; Table 2
  E^0 Aqueous: −420 mV vs. N.H.E.
[4]; Table 2, 0.1 M Tris, pH 7.2
  E^0 1:1 MeOH:H2O: −410 mV vs. N.H.E.
[9]
  transport of ferrous and ferric iron across model liposomal membranes: minimal transport

## Cc1occc(=O)c1O [Maltol, maltol]
[1]
  KA for iron (II): 7.8 × 10^13
[2]
  pFe^III, literature value: (15)^§
[3]
  E^0 Aqueous, literature value: (40)*** mV vs. N.H.E.
[10]
  KA for iron (III): 3.9 × 10^17
  pFe^III: 15.4^±
[4]; Table 2
  E^0 Aqueous: 41 mV vs. N.H.E.
[4]; Table 2, 0.1 M Tris, pH 7.2
  E^0 1:1 MeOH:H2O: 8 mV vs. N.H.E.

## CO/C1=C\C(C)=C\[C@@H](C)[C@@H](O)[C@@H](C)C/C(C)=C/C=C/[C@H](OC)[C@@H]([C@@H](C)[C@@H](O)[C@H](C)[C@@]2(O)C[C@@H](OC(=O)/C=C/C(=O)NC3=C(O)CCC3=O)[C@H](C)[C@@H](C(C)C)O2)OC1=O [bafilomycin, bafilomycin B1]
[11]
  sensitivity of hinokitiol-rescued fet3Δftr1Δ yeast relative to hinokitiol-treated wild type yeast: increased sensitivity

## O=C(NN=Cc1ccccc1O)c1ccncc1 [SIH, salicylaldehyde isonicotinoyl hydrazone]
[6]
  iron uptake and transepithelial transport: did not promote both uptake and transport
fet3Δftr1Δ yeast [8]
  growth rescue of fet3Δftr1Δ yeast: no growth rescue

## CC[C@H](C)C[C@H](C)CCCCCCCCC(=O)N[C@H]1C[C@@H](O)[C@@H](NCCN)NC(=O)[C@@H]2[C@@H](O)CCN2C(=O)[C@H]([C@H](O)CCN)NC(=O)[C@H]([C@H](O)[C@@H](O)c2ccc(O)cc2)NC(=O)[C@@H]2C[C@@H](O)CN2C(=O)[C@H]([C@@H](C)O)NC1=O [caspofungin]
[11]
  sensitivity of hinokitiol-rescued fet3Δftr1Δ yeast relative to hinokitiol-treated wild type yeast: equisensitive
